Reference: US4882357A, “Novel N-(substituted-phenyl)-5-(substituted-2,5-dimethylphenoxy)-2,2-dimethylp entanamides” (Warner-Lambert Company, priority 1988, dated 1989)
pIC50: −log10 of the molar value.

Tests used:
[1] = molecular target: T1, acyl-CoA:cholesterol acyltransferase (ACAT) (Oryctolagus cuniculus, UniProt G1SFD9); assay: inhibition of esterification of cholesterol by ACAT (cholesteryl oleate formation), rabbit intestinal microsomal fraction; type: biochemical; details: endogenous cholesterol, exogenous 14C-oleoyl-CoA, read-out: IC50 (concentration of test compound required to inhibit cholesteryl oleate formation to 50% of control)
T1 construct: rabbit intestinal microsomal fraction; from tissue; host or cells: rabbit intestine, microsomal fraction
T1 sequence (G1SFD9 1-524): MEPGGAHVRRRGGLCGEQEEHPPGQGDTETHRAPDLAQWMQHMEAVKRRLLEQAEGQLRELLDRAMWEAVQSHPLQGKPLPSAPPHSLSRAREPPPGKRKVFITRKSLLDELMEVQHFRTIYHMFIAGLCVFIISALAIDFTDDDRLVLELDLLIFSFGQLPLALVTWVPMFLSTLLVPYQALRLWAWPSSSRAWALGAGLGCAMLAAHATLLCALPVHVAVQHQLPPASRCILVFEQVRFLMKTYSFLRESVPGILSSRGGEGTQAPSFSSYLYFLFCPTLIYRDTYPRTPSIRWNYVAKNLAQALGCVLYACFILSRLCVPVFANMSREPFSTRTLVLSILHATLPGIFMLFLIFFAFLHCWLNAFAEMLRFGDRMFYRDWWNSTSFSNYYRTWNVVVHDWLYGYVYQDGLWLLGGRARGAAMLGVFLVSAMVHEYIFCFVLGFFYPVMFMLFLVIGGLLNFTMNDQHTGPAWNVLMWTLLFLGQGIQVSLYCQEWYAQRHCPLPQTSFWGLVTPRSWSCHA
Method: The compounds of the present invention were tested for their ability to inhibit the esterification of cholesterol by the enzyme acyl-CoA:cholesterol acyltransferase (ACAT). The data in the table below is expressed as IC50 values, i.e., the concentration of test compound required to inhibit cholesteryl oleate formation to 50% of control.
The in vitro test employed is more fully described in Field, F. J. and Salome, R. G., Biochemica et Biophysica Acta, 712, pp 557-570 (1982). The assay evaluates the ability of a test compound to inhibit the esterification of cholesterol using endogenous cholesterol of a rabbit intestinal microsomal fraction and exogenous ^14 C-oleoyl-CoA as reactants.

HDL = assay: elevation of HDL, test drug versus gemfibrozil; type: in vivo, rats; details: 50 mg/kg test drug vs 50 mg/kg gemfibrozil; 1 = as effective as gemfibrozil
Method: Additionally, the elevation of HDL is reported in the table as a ratio of the elevation of HDL effected by a dose of 50 mg/kg of the test drug divided by the elevation of HDL effected by a 50 mg/kg dose of gemfibrozil which is used as a control in each experiment. [formula] Thus, a figure of 1 means that the test drug was as effective as gemfibrozil in elevating HDL. […] The test procedure is described in U.S. Pat. No. 4,413,011.

[2] = system: patients with elevated cholesterol levels; details: cited from earlier work

Compound | pIC50 [1] | ratio of the elevation of HDL effected by test drug divided by the elevation of HDL effected by gemfibrozil (HDL) | effect on LDL and HDL ([2]; in words) | reduction of the rate of heart attack and sudden cardiac death ([2]; patients with elevated cholesterol levels, five years)
Cc1ccc(C)c(OCCCC(C)(C)C(=O)Nc2c(F)cc(F)cc2F)c1 [Example 1h, 5-(2,5-dimethylphenoxy)-2,2-dimethyl-N-(2,4,6-trifluorophenyl)pentanamide] | 6.10 | 0.74 | – | –
Cc1ccc(C)c(OCCCC(C)(C)C(=O)Nc2ccc(F)cc2F)c1 [Example 1g, N-(2,4-Difluorophenyl)-5-(2,5-dimethylphenoxy)-2,2dimethylpentanamide] | 5.15 | 0.36 | – | –
COc1cc(C)ccc1NC(=O)C(C)(C)CCCOc1cc(C)ccc1C [Example 1a, 5-(2,5-dimethylphenoxy)-N-(2-methoxy-4-methylphenyl)-2,2-dimethylpentanamide] | 5.22 | 0.80 | – | –
Cc1ccc(C)c(OCCCC(C)(C)C(=O)Nc2ccc(C)cc2OC(C)C)c1 [Example 1j, 5-(2,5-Dimethylphenoxy)-2,2-dimethyl-N-[4-methyl-2-(1-methylethoxy)phenyl]pentanamide] | 5.10 | 0.84 | – | –
COC(=O)C(C)(C)CCCOc1ccccc1NC(=O)C(C)(C)CCCOc1cc(C)ccc1C [Example 1l, 5-[2[[5-(2,5-dimethylphenoxy)2,2-dimethyl-1-oxopentyl]amino]phenoxy]-2,2-dimethylpentanoic acid, methyl ester] | 5.10 | 0.4 | – | –
Cc1ccc(NC(=O)C(C)(C)CCCOc2cc(C)ccc2C)c(C)c1 [Example 1b, 5-(2,5-Dimethylphenoxy)-N-(2,4-dimethylphenyl)-2,2-dimethylpentanamide] | 5.10 | 1.29 | – | –
Cc1ccc(C)c(OCCCC(C)(C)C(=O)O)c1 [gemfibrozil] | – | – | both lowers LDL and elevates HDL | 34%
CCOc1ccccc1NC(=O)C(C)(C)CCCOc1cc(C)ccc1C [Example 1d, 5-(2,5-dimethylphenoxy)-N-(2-ethoxyphenyl)-2,2-dimethylpentanamide] | 5.30 | 1.08 | – | –
COc1ccc(NC(=O)C(C)(C)CCCOc2cc(C)ccc2C)cc1OC [Example 1c, N-(3,4-Dimethoxyphenyl)-5-(2,5-dimethylphenoxy)-2,2-dimethylpentanamide] | 5.52 | 1.10 | – | –

Further compounds by rising pIC50 [1], results first:

pIC50 [1] | Compound | ratio of the elevation of HDL effected by test drug divided by the elevation of HDL effected by gemfibrozil (HDL) | effect on LDL and HDL ([2]; in words) | reduction of the rate of heart attack and sudden cardiac death ([2]; patients with elevated cholesterol levels, five years)
4.35 | CCOC(=O)C=Cc1ccc(NC(=O)C(C)(C)CCCOc2cc(C)ccc2C)cc1 [Example 5, 3-[4-[[5-(2,5-Dimethylphenoxy)-2,2-dimethyl-1-oxopentyl]amino]phenyl]-2-propenoic acid, ethyl ester, reference compound] | 0.56 | – | –
4.68 | COC(=O)C(C)(C)CCCOc1cccc(NC(=O)C(C)(C)CCCOc2cc(C)ccc2C)c1 [Example 1m, 5-[3-[[5-(2,5-dimethylphenoxy)-2,2-dimethyl-1-oxopentyl]amino]phenoxy]-2,2-dimethylpentanoic acid, methyl ester] | 1.0 | – | –
4.85 | COc1ccccc1NC(=O)C(C)(C)CCCOc1cc(C)ccc1C [Example 1, 5-(2,5-dimethylphenoxy)-N-(2-methoxyphenyl)-2,2-dimethylpentanamide] | 0.31 | – | –
5.00 | CCCCCCOc1ccccc1NC(=O)C(C)(C)CCCOc1cc(C)ccc1C [Example 1f, 5-(2,5-dimethylphenoxy)-N[2-(hexyloxy)phenyl]-2,2-dimethylpentanamide] | 0.42 | – | –
5.22 | Cc1ccc(C)c(OCCCC(C)(C)C(=O)Nc2ccc3c(c2)OCO3)c1 [Example 1k, N-1,3-Benzodioxol-5-yl-5-(2,5-dimethylphenoxy)-2,2dimethylpentanamide] | 1.13 | – | –
